pEC50: −log10 of the molar value.
Molecular target: T1, IRE1α (Homo sapiens, UniProt O75460)
T1 construct: purchased SignalChem
Experiment: In vitro FRET assay (XBP1 RNA probe cleavage by IRE1α)
Details: biochemical FRET assay, 2 nM IRE1α
Description: In vitro FRET assay was performed to evaluate the ability of select compounds to inhibit IRE1, the results of which are summarized in the following table.
To perform the in vitro FRET assay, 1× complete assay buffer (CAB; […], 50 mM sodium citrate pH 7.15, 1 mM magnesium acetate, 0.02% Tween 20) was used to dilute SignalChem IRE1α in protein to a final concentration of 2 nM. Selected compounds were serially diluted with DMSO in a non-binding black 384-well plate for a total of 15 μl in each well. 2 μl of the serially diluted compound or DMSO control were then added to new wells containing 98 μl of 1×CAB, for a total volume of 100 μl, 10 μl of which were then transferred to wells of a new plate. 5 μl of the diluted IRE1α was then added to each well. 5 μl of a […] XBP1 RNA probe was then added to each well. Fluorescence was then read over 30 minutes in kinetic mode (485/515 nm). Two RNA probes were used, XBP1 wildtype (CAUGUCCGCAGCACAUG; SEQ ID NO: 1) which is able to be spliced by active IRE1α or XBP1 mutant (CAUGUCCCCAGCACAUG; SEQ ID NO: 2) which is unable to be spliced. Each probe contained a 5′ 6-FAM modification and a 3′ IOWA Black FQ modification. […]

T1 sequence (O75460 19-977): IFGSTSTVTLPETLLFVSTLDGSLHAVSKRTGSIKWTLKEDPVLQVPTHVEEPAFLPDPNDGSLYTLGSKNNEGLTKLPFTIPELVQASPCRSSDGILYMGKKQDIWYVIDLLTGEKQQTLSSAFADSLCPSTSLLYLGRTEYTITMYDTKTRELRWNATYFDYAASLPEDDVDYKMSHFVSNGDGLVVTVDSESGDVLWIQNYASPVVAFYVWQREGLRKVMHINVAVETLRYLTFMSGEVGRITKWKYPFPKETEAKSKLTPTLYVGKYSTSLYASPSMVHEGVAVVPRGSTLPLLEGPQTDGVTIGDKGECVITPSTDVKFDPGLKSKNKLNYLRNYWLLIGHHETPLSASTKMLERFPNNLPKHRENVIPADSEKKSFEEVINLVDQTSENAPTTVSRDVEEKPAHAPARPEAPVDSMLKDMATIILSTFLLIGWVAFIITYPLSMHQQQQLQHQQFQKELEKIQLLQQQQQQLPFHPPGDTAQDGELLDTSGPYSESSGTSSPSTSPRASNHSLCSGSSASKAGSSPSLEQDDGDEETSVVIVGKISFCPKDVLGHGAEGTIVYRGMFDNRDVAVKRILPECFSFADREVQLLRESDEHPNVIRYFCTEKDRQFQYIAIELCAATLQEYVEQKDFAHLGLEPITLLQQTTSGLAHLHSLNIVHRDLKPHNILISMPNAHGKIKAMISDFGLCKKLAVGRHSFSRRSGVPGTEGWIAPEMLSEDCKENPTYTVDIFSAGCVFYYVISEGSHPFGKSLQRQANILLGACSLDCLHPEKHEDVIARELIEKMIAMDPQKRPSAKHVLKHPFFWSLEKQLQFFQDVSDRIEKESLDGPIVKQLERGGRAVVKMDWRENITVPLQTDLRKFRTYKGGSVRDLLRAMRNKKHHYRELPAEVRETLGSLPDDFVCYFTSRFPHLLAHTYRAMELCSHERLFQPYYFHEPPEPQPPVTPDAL

**Q.** With `CN1CCN(Cc2ccc(NC(=O)Cc3cc(-c4ccc5cc(N)ncc5c4)n(C)n3)cc2C(F)(F)F)CC1` [Compound 32, 2-(5-(3-aminoisoquinolin-7-yl)-1-methyl-1H-pyrazol-3-yl)-N-(4-((4-methylpiperazin-1-yl)methyl)-3-(trifluoromethyl)phenyl)acetamide] as the compound, how does the pEC50 read?
**A.** Its pEC50 is less than 4.00.

**Q.** `Cc1nc(NC(=O)Nc2ccc(CN3CCN(C)CC3)c(C(F)(F)F)c2)[nH]c1-c1ccc2ccncc2c1` [Compound 46, 1-(5-(isoquinolin-7-yl)-4-methyl-4H-imidazol-2-yl)-3-(4-((4-methylpiperazin-1-yl)methyl)-3-(trifluoromethyl)phenyl)urea] was tested. Which pEC50 did it give?
**A.** The pEC50 was no less than 5.30.

**Q.** How did the pEC50 turn out when `Cn1nc(NC(=O)Nc2ccc(CN3CCC(O)CC3)c(C(F)(F)F)c2)cc1-c1ccc2ccncc2c1` [Compound 41, 1-(4-((4-hydroxypiperidin-1-yl)methyl)-3-(trifluoromethyl)phenyl)-3-(5-(isoquinolin-7-yl)-1-methyl-1H-pyrazol-3-yl)urea] was run?
**A.** The pEC50 was less than 4.00.

**Q.** `Cn1nc(NC(=O)NCc2ccccc2)cc1-c1ccc2ccncc2c1` [Compound 63, 1-benzyl-3-(5-(isoquinolin-7-yl)-1-methyl-1H-pyrazol-3-yl)urea] was tested. Which pEC50 did it give?
**A.** The pEC50 was less than 4.00.

**Q.** How did the pEC50 turn out when `Cn1nc(NS(=O)(=O)c2cccc(C(F)(F)F)c2)cc1-c1ccc2ccncc2c1` [Compound 72, N-(5-(isoquinolin-7-yl)-1-methyl-1H-pyrazol-3-yl)-3-(trifluoromethyl)benzene-sulfonamide] was run?
**A.** Its pEC50 is 4.00 to 4.30.

**Q.** With `Cn1nc(NC(=O)Nc2ccc(CN3CCCCCC3)c(C(F)(F)F)c2)cc1-c1ccc2ccncc2c1` [Compound 38, 1-(4-(azepan-1-ylmethyl)-3-(trifluoromethyl)phenyl)-3-(5-(isoquinolin-7-yl)-1-methyl-1H-pyrazol-3-yl)urea] as the compound, how does the pEC50 read?
**A.** Its pEC50 is less than 4.00.

**Q.** `CN1CCN(Cc2ccc(NC(=O)Nc3cc(-c4ccc5nc(C(F)F)[nH]c(=O)c5c4)n(C)n3)cc2C(F)(F)F)CC1` [Compound 8, 1-(5-(2-(difluoromethyl)-4-oxo-3,4-dihydroquinazolin-6-yl)-1-methyl-1H-pyrazol-3-yl)-3-(4-((4-methylpiperazin-1-yl)methyl)-3-(trifluoromethyl)phenyl)urea] was tested. Which pEC50 did it give?
**A.** The pEC50 was no less than 5.30.

**Q.** With `O=C(Nc1ccc2oc(-c3cccnc3)nc2c1)[C@H]1C[C@H]1c1ccccc1` [Compound 59, (1S,2R)-2-phenyl-N-(2-(pyridin-3-yl)benzo[d]oxazol-5-yl)cyclopropane-1-carboxamide] as the compound, how does the pEC50 read?
**A.** Its pEC50 is 4.30 to 5.30.

**Q.** How did the pEC50 turn out when `CC1CCCCN1Cc1ccc(NC(=O)Nc2cc(-c3ccc4ccncc4c3)n(C)n2)cc1C(F)(F)F` (stereo not drawn) [Compound 43, 1-(5-(isoquinolin-7-yl)-1-methyl-1H-pyrazol-3-yl)-3-(4-((2-methylpiperidin-1-yl)methyl)-3-(trifluoromethyl)phenyl)urea] was run?
**A.** The pEC50 was less than 4.00.

**Q.** How did the pEC50 turn out when `Cn1nc(NC(=O)Nc2ccc(CN3CCOCC3)c(C(F)(F)F)c2)cc1-c1ccc2ccncc2c1` [Compound 39, 1-(5-(isoquinolin-7-yl)-1-methyl-1H-pyrazol-3-yl)-3-(4-(morpholinomethyl)-3-(trifluoromethyl)phenyl)urea] was run?
**A.** Its pEC50 is less than 4.00.

**Q.** How did the pEC50 turn out when `CN1CCN(Cc2ccc(NC(=O)Nc3nc(-c4ccc5ccncc5c4)n(C)n3)cc2C(F)(F)F)CC1` [Compound 34, 1-(5-(isoquinolin-7-yl)-1-methyl-1H-1,2,4-triazol-3-yl)-3-(4-((4-methylpiperazin-1-yl)methyl)-3-(trifluoromethyl)phenyl)urea] was run?
**A.** Its pEC50 is 4.30 to 5.30.

**Q.** How did the pEC50 turn out when `CN1CCN(Cc2ccc(NC(=O)Nc3cc(-c4ccc5nc(N)nc(N)c5c4)n(C)n3)cc2C(F)(F)F)CC1` [Compound 29, 1-(5-(2,4-diaminoquinazolin-6-yl)-1-methyl-1H-pyrazol-3-yl)-3-(4-((4-methylpiperazin-1-yl)methyl)-3-(trifluoromethyl)phenyl)urea] was run?
**A.** The pEC50 was no less than 5.30.

**Q.** With `CN1CCN(Cc2ccc(Nc3c(Nc4cc(-c5ccc6nc(N)ncc6c5)n(C)n4)c(=O)c3=O)cc2C(F)(F)F)CC1` [Compound 75, 3-((5-(2-aminoquinazolin-6-yl)-1-methyl-1H-pyrazol-3-yl)amino)-4-((4-((4-methylpiperazin-1-yl)methyl)-3-(trifluoromethyl)phenyl)amino) cyclobut-3-ene-1,2-dione] as the compound, how does the pEC50 read?
**A.** The pEC50 was no less than 5.30.

**Q.** With `Cn1nc(NC(=O)Nc2ccc(CN3CCN(CCO)CC3)c(C(F)(F)F)c2)cc1-c1ccc2ccncc2c1` [Compound 36, 1-(4-((4-(2-hydroxyethyl)piperazin-1-yl)methyl)-3-(trifluoromethyl)phenyl)-3-(5-(isoquinolin-7-yl)-1-methyl-1H-pyrazol-3-yl)urea] as the compound, how does the pEC50 read?
**A.** Its pEC50 is no less than 5.30.

**Q.** How did the pEC50 turn out when `O=C(/C=C\c1ccccc1)Nc1ccc2oc(-c3cccnc3)nc2c1` [Compound 60, (Z)-3-phenyl-N-(2-(pyridin-3-yl)benzo[d]oxazol-5-yl)acrylamide] was run?
**A.** The pEC50 was 4.30 to 5.30.

**Q.** `Cc1nc(NC(=O)Nc2ccc(CN3CCN(C)CC3)c(C(F)(F)F)c2)n(C)c1-c1ccc2cc(N)ncc2c1` [Compound 50, 1-(5-(3-aminoisoquinolin-7-yl)-1,4-dimethyl-1H-imidazol-2-yl)-3-(4-((4-methylpiperazin-1-yl)methyl)-3-(trifluoromethyl)phenyl)urea] was tested. Which pEC50 did it give?
**A.** Its pEC50 is 4.30 to 5.30.

**Q.** `Cn1nc(NC(=O)Nc2ccccc2)cc1-c1ccc2ccncc2c1` [Compound 64, 1-(5-(isoquinolin-7-yl)-1-methyl-1H-pyrazol-3-yl)-3-phenylurea] was tested. Which pEC50 did it give?
**A.** The pEC50 was less than 4.00.

**Q.** With `CN1CCN(Cc2ccc(NC(=O)Nc3cc(-c4ccc(-c5cccn6ccnc56)cc4)n(C)n3)cc2C(F)(F)F)CC1` [Compound 54, 1-(5-(4-(imidazo[1,2-a]pyridin-8-yl)phenyl)-1-methyl-1H-pyrazol-3-yl)-3-(4-((4-methylpiperazin-1-yl)methyl)-3-(trifluoromethyl)phenyl)urea] as the compound, how does the pEC50 read?
**A.** The pEC50 was no less than 5.30.

**Q.** How did the pEC50 turn out when `CN1CCN(Cc2ccc(NC(=O)Nc3cc(-c4ccc5nc(N)nc(O)c5c4)n(C)n3)cc2C(F)(F)F)CC1` [Compound 27, 1-(5-(2-amino-4-hydroxyquinazolin-6-yl)-1-methyl-1H-pyrazol-3-yl)-3-(4-((4-methylpiperazin-1-yl)methyl)-3-(trifluoromethyl)phenyl)urea] was run?
**A.** Its pEC50 is no less than 5.30.

**Q.** With `CN1CCN(Cc2ccc(NC(=O)Nc3cc(-c4ccc5cnoc5c4)n(C)n3)cc2C(F)(F)F)CC1` [Compound 2, 1-(5-(benzo[d]isoxazol-6-yl)-1-methyl-1H-pyrazol-3-yl)-3-(4-((4-methylpiperazin-1-yl)methyl)-3-(trifluoromethyl)phenyl)urea] as the compound, how does the pEC50 read?
**A.** Its pEC50 is 4.30 to 5.30.

**Q.** How did the pEC50 turn out when `CN1CCN(Cc2ccc(NC(=O)Nc3cc(-c4ccc5ccncc5c4)n(C)n3)cc2Br)CC1` [Compound 44, 1-(3-bromo-4-((4-methylpiperazin-1-yl)methyl)phenyl)-3-(5-(isoquinolin-7-yl)-1-methyl-1H-pyrazol-3-yl)urea] was run?
**A.** The pEC50 was 4.30 to 5.30.

**Q.** With `CN1CCN(Cc2ccc(NC(=O)Nc3n[nH]c4cc(-c5cnc(N)nc5)ccc34)cc2C(F)(F)F)CC1` [Compound 11, 1-(6-(2-aminopyrimidin-5-yl)-1H indazol-3-yl)-3-(4-((4-methylpiperazin-1-yl)methyl)-3-(trifluoromethyl)phenyl)urea] as the compound, how does the pEC50 read?
**A.** The pEC50 was 4.30 to 5.30.

**Q.** `CN1CCN(Cc2ccc(Nc3c(Nc4cc(-c5ccc6ccncc6c5)n(C)n4)c(=O)c3=O)cc2)CC1` [Compound 74, 3-((5-(isoquinolin-7-yl)-1-methyl-1H-pyrazol-3-yl)amino)-4-((4-((4-methylpiperazin-1-yl)methyl)phenyl)amino)cyclo-but-3-ene-1,2-dione] was tested. Which pEC50 did it give?
**A.** The pEC50 was no less than 5.30.

**Q.** With `CN1COc2cc(NC(=O)Nc3cc(-c4ccc5ccncc5c4)n(C)n3)ccc2C1` [Compound 62, 1-(5-(isoquinolin-7-yl)-1-methyl-1H-pyrazol-3-yl)-3-(3-methyl-3,4-dihydro-2H-benzo[e][1,3]oxazin-7-yl)urea] as the compound, how does the pEC50 read?
**A.** The pEC50 was less than 4.00.

**Q.** `O=C(Nc1ccccc1)Nc1ccc2oc(-c3cccnc3)nc2c1` [Compound 56, 1-phenyl-3-(2-(pyridin-3-yl)benzo[d]oxazol-5-yl)urea] was tested. Which pEC50 did it give?
**A.** The pEC50 was less than 4.00.

**Q.** `CN1CCN(Cc2ccc(NC(=O)Cc3cc(-c4ccc5nc(N)ncc5c4)n(C)n3)cc2C(F)(F)F)CC1` [Compound 33, 2-(5-(2-aminoquinazolin-6-yl)-1-methyl-1H-pyrazol-3-yl)-N-(4-((4-methylpiperazin-1-yl)methyl)-3-(trifluoromethyl)phenyl)acetamide] was tested. Which pEC50 did it give?
**A.** The pEC50 was 4.30 to 5.30.

**Q.** `CN1CCN(Cc2ccc(Nc3c(Nc4cc(-c5ccc6ccncc6c5)n(C)n4)c(=O)c3=O)cc2C(F)(F)F)CC1` [Compound 73, 3-((5-(isoquinolin-7-yl)-1-methyl-1H-pyrazol-3-yl)amino)-4-((4-((4-methylpiperazin-1-yl)methyl)-3-(trifluoromethyl)phenyl)amino) cyclobut-3-ene-1,2-dione] was tested. Which pEC50 did it give?
**A.** Its pEC50 is no less than 5.30.

**Q.** `CN1CCN(Cc2ccc(NC(=O)Nc3cc(-c4ccn5ccnc5c4)n(C)n3)cc2C(F)(F)F)CC1` [Compound 4, 1-(5-(imidazo[1,2-a]pyridin-7-yl)-1-methyl-1H-pyrazol-3-yl)-3-(4-((4-methylpiperazin-1-yl)methyl)-3-(trifluoromethyl)phenyl)urea] was tested. Which pEC50 did it give?
**A.** Its pEC50 is less than 4.00.

**Q.** With `CSc1ccccc1NC(=O)Nc1cc(-c2ccc3ccncc3c2)n(C)n1` [Compound 68, 1-(5-(isoquinolin-7-yl)-1-methyl-1H-pyrazol-3-yl)-3-(2-(methylthio)phenyl)urea] as the compound, how does the pEC50 read?
**A.** The pEC50 was less than 4.00.

**Q.** With `CN1CCN(Cc2ccc(NC(=O)Nc3ccc4oc(-c5cnn6ccccc56)nc4c3)cc2C(F)(F)F)CC1` [Compound 16, 1-(4-((4-methylpiperazin-1-yl)methyl)-3-(trifluoromethyl)phenyl)-3-(2-(pyrazolo[1,5-a]pyridin-3-yl)benzo[d]oxazol-5-yl)urea] as the compound, how does the pEC50 read?
**A.** Its pEC50 is no less than 5.30.
